Results taken from PubChem BioAssay (NCI).
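Briefly, cells in 96-well plates were exposed to five compound concentrations for 48 h, and endpoints were estimated by linear interpolation. GI50 marks 50% less growth. TGI: concentration producing complete growth inhibition.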

Assays:
Experiment in all cases: NCI tumour cell line growth inhibition, 48 h
HCC-2998 colon = tested on: HCC-2998 colon
K-562 leukemia = tested on: K-562 leukemia
SNB-19 CNS = tested on: SNB-19 CNS
CAKI-1 renal = tested on: CAKI-1 renal
NCI-H226 lung = tested on: NCI-H226 lung
OVCAR-8 ovarian = tested on: OVCAR-8 ovarian
MOLT-4 leukemia = tested on: MOLT-4 leukemia
HCT-116 colon = tested on: HCT-116 colon
SF-539 CNS = tested on: SF-539 CNS
SN12C renal = tested on: SN12C renal

Row | Compound | TGI (HCC-2998 colon) [µM] | TGI (K-562 leukemia) [µM] | TGI (SNB-19 CNS) [µM] | TGI (CAKI-1 renal) [µM] | TGI (NCI-H226 lung) [µM] | TGI (OVCAR-8 ovarian) [µM] | TGI (MOLT-4 leukemia) [µM] | TGI (HCT-116 colon) [µM] | TGI (SF-539 CNS) [µM] | TGI (SN12C renal) [µM] | GI50 (HCT-116 colon) [µM] | GI50 (HCC-2998 colon) [µM] | GI50 (K-562 leukemia) [µM] | GI50 (SNB-19 CNS) [µM] | GI50 (SF-539 CNS) [µM] | GI50 (CAKI-1 renal) [µM] | GI50 (SN12C renal) [µM] | GI50 (NCI-H226 lung) [µM] | GI50 (OVCAR-8 ovarian) [µM] | GI50 (MOLT-4 leukemia) [µM]
1 | C[C@]12CC[C@@H]3c4ccc(OCCN5CCCC5)cc4CC[C@H]3[C@@H]1CCC2=O | 25.1 | > 100 | > 100 | 81.5 | 54 | > 100 | 70.2 | – | – | – | – | – | – | – | – | – | – | – | – | –
2 | CCCCCCCCCCCCCCCC(=O)OC1C(O)C(CO)OC(OC)C1NC(=O)N(CCCl)N=O (centres undefined) | – | 66.1 | 23.8 | > 100 | 33.7 | 38.1 | 23 | 30 | 6.16 | – | – | – | – | – | – | – | – | – | – | –
3 | CCCOC1OC(CS(=O)(=O)O)C(O)C(O)C1O (centres undefined) | > 100 | > 100 | > 100 | > 100 | > 100 | > 100 | > 100 | > 100 | – | > 100 | – | – | – | – | – | – | – | – | – | –
4 | O=c1nc2sc3ccc4ccccc4c3n2[nH]c1=O | > 100 | > 100 | > 100 | – | > 100 | > 100 | > 100 | > 100 | > 100 | > 100 | – | – | – | – | – | – | – | – | – | –
5 | CCCCN=C1OCc2[nH][nH]c(=O)c21 | > 100 | > 100 | > 100 | > 100 | > 100 | > 100 | > 100 | > 100 | > 100 | > 100 | – | – | – | – | – | – | – | – | – | –
6 | O=C(O)Cn1c2c(c3c(O)cccc31)C(=O)c1ccccc1-2 | > 100 | > 100 | > 100 | > 100 | > 100 | > 100 | > 100 | > 100 | > 100 | > 100 | 93.6 | > 100 | > 100 | > 100 | 5.62 | > 100 | > 100 | > 100 | > 100 | > 100
7 | CCOC(=O)NC(Nc1ccc(Cl)cn1)(C(F)(F)F)C(F)(F)F | > 100 | > 100 | > 100 | – | > 100 | – | > 100 | > 100 | > 100 | – | – | – | – | – | – | – | – | – | – | –
8 | N#CCCN(CCC#N)c1ccc(/C=C2\N=C(c3cc([N+](=O)[O-])ccc3Cl)N(NC(=O)CC(=O)Nc3ccccc3Cl)C2=O)cc1 | > 100 | > 100 | > 100 | > 100 | 35.6 | > 100 | > 100 | > 100 | > 100 | > 100 | – | – | – | – | – | – | – | – | – | –
9 | CC(=O)N/C(=C\c1ccc(/C=C(\NC(C)=O)C2=NC3C(=O)c4ccccc4C(=O)C3N2)cc1)C1=NC2C(=O)c3ccccc3C(=O)C2N1 (centres undefined) | – | > 100 | > 100 | > 100 | > 100 | > 100 | 26.6 | > 100 | > 100 | > 100 | – | – | – | – | – | – | – | – | – | –
